Legend:
DTH caused by DNFB = experiment: Delayed hypersensitivity (DTH) caused by DNFB in the mouse ear; format: in vivo, NIH mouse; details: 0.003 g/kg, administration day 0˜5
Protocol: Each mouse was led to hypersensitivity reaction by using the 1% DNFB acetone solution on the dosage of 0.025 ml at the right place of the abdomen where the pilus had been cut yet. Using the same solution on the same place was to enhance the hypersensitivity reaction on the third day. On the fifth day, all the mice were smeared with the 1% DNFB edible oil solution at the mice's right ears on the dosage of 0.01 ml each. 24 hours later, all the mice were killed. The mouse's 2 ears were weighted by the torsion balance and the difference of the 2 ears was recorded as the DTH degree caused by the DNFB. The experiment was carried out on the different immune and administration processes.
The immune and administration processes is as following: [drawing 1]

rat AA model = experiment: Preventing effect on adjuvant arthritis (AA): swelling degree; format: in vivo, SD rats; details: 0.01 g/kg
Protocol: (§1) 72 isogenous SD rats of the same batch, half male and half female, 180˜220 g weight, were divided randomly into 6 groups. Each group has 12 rats. Every 6 rats lived in a cage. The perimeter of the double anklejoints and the feet of the rat were measured accurately and recorded as the normal value. All the rats were drenched by the same volume of the invented medicine on the correspondent concentration or the solution of the Xihuangqi by the gastic injection. 1 hour later, all the rats were injected with 0.1 ml Freund's complete adjuvant (FCA) under the skin of the left postpedes. In the next 30 days, all the rats were drenched with the correspondent medicine once a day on the same dosage. And in these days, the rats were measured of the perimeters of the double anklejoints and the feet once a day. In this experiment, the swelling degree (Δcm) equaled to the difference value of the perimeters measured after the FCA injection and before the FCA injection. (See the result in table 1.1 and 1.2) At the end of the experiment, the major organs of the rats were weighted. (See the table 1.3, 1.4)

[1] = Body weight of AA rats (prevention experiment); format: in vivo, SD rats; details: 0.01 g/kg
Protocol: as §1

[2] = Organ index of AA rats (prevention experiment); format: in vivo, SD rats
Protocol: as §1

AA rats = experiment: Therapeutic effect on AA: swelling degree; format: in vivo, SD rats; details: 0.01 g/kg
From the text: (§2) 50 male SD rats were divided into 5 groups at random. The model building was same to the prevention experiment, but the correspondent medicines were drenched 13 days after the injection of the FCA. The medicines were drenched once a day for 2 weeks. The swelling degree (Δcm) was the difference of the perimeters between the value of first administration day and the other days.

[3] = Organ index of AA rats (Table 1.7); format: in vivo, SD rats; details: 0.01 g/kg
From the text: as §2

PCA in rat = experiment: Passive cutis anaphylactic reaction (PCA); format: in vivo; details: 0.1 g/kg
Protocol: The rats were injected with the egg albumn at 10 mg/kg in the muscle. At the same time, all the rats were injected with 2×10^10 (0.2 ml) bordetella pertussis in the abdominal cavity for sensitization. 2 weeks later, all the rats were killed to sample the blood. All the blood samples were separated for preparing the serum.
60 rats, 150˜200 g, half male and half female, were divided into 6 groups at random. In the light narcosis condition induced by aether, each rat was cut the fleece in the back and injected with the 2 concentrations of anti-egg-album serum 0.1 ml under the skin at the fairless place. The serums were diluted on the rates of 1:5(d1) and 1:10(d2) before the experiment. 48 hours later, all the rats were attacked by intravenous injecting the 0.5% evans blue normal saline solution 1 ml which containing 1 mg egg albumin. 20 minutes later, the rats were killed by decapitation. The rats' back skin were dissected and turned over. According to the dark and light and area of the blue stains exudated from the vessels, all the rats were evaluated by several people. The skin stained by the evens blue were scissored and soaked in 5 ml 0.1% sodium sulfate acetone (7:3) solution for 48 hours. Then it was centrifugated to separate the supernatant liquor. The supernates were measured the optical density at the wavelength 590 nm to calculate the degree of the PCA reaction and the inhibiting percent.

macrophage = experiment: CRBC phagocytosis of abdominal macrophages; format: in vivo, mouse; details: 0.005 g/kg, 7 days
Protocol: 50 NIH mice, 18˜22 g weight, half male and half female, were divided into 5 groups and drenched with the correspondent medicine solutions on the same volumn. The administration was once a day for 7 days. 1 hour after the last administration, all the mice were injected with 0.2 ml 10% chick RBC into the abdominal carvity. 4 hours later, all the mice were killed and sampled the fluid in the abdomincal carvity. The liquor samples were dropped on the glass and counted the number of the macrophage which had phagocytized the CRBC and the number of the CRBC in one macrophage. (See the result in table 7)

capillary permeability = experiment: Capillary permeability induced by acetic acid in the abdominal cavity; format: in vivo, NIH mice; details: 0.15 g/kg, qd × 3
Protocol: 90 NIH mice, 18˜22 g weight, half male and half female, were divided into 9 groups and drenched with the correspondent medicine solutions of the same volumn. The medicines were drenched once a day for 3 days or just 1 time. 1 hour after the last administration, each mouse were injected with 0.7% HAC-NS solution into the abdominal cavity. At the same time, each mouse was injected with the 0.5% Evans blue-NS solution into the vessel on the dose of 0.1 ml/10 g. 30 min later; all the mice were killed by cervical disjoint. The abdominal cavity was opened and washed by the 5 ml NS. The NS used was collected and adjusted to 8 ml by the pure NS as the sample. The samples were centrifuged at 3000 rpm to get the supernate. The supernate was measured the OD at the wavelength at 590 nm. (See the result in table 8)

[4] = tested on: pleuritis induced by the carrageenan; experiment: Carrageenan pleuritis: exudation and inflammatory cell aggregation; format: in vivo, mice; details: 0.05 g/kg
Protocol: The mice were divided into 5 groups at random and injected with 0.5% Evans blue NS solution into the caudal vein on the dosage of 0.1 ml/10 g. Then the mice were injected with the 0.03 ml 1% carrageenan in the right chest cavity with the special syring niddle. 4 hours and 32 hours after the injection, the correspondent mice were killed and opend the obdominal cavity to expose the diaphragm. 2 ml of the lotion were injected to the chest cavity by 2 times with a 1 ml injector. The lotion was collected and saved in a test tube. 20 μl of the lotion collected was added into the 400 μl WBC dilution. The WBC in the mixed dilution was counted under the microscope. The rest of the lotion was centrifuged at 3000 rpm for 10 min. The supernate of the lotion was measured the OD at the wavelength of 600 nm. The OD value of the sample should be corrected with the correspondent OD value of the pure lotion. (See the result in table 9)

[5] = tested on: croton oil-induced swelling; experiment: Croton oil-induced swelling of the ears; format: in vivo, NIH mice; details: 0.003 g/kg, 3 days
Protocol: 60 NIH mice with weight of 18˜22 g, male and female accounting for half and half, were divided into 6 groups, which were drenched with the same volume and different dosage of drug liquid or tragacanth liquid, once a day, lasting 3 days. 1 hour after the final administration, 2% croton oil mixure of 0.02 ml was embrocated uniformly on the both sides of left ears of mice, and after 4 hours, the mice were snapped off its cervical vertebra and put to death. The left and right ears were cut down, then inflammatory and control ears were weighted by certain means. Difference of weight between left and right ears was the swelling extent of ears, results showing in table 11.

SMILES: C[C@@H]1C[C@H]2[C@@H]3CCC4=CC(=O)C=C[C@]4(C)[C@@]3(F)[C@@H](O)C[C@]2(C)[C@@]1(O)C(=O)CO [cortisumman]
- Percent of ear swelling (DTH caused by DNFB): 13.93 ± 4.41
- Percent of inhibition (DTH caused by DNFB): 59.3%

SMILES: C[C@]12C=CC(=O)C=C1CC[C@@H]1[C@@H]2C(=O)C[C@@]2(C)[C@H]1CC[C@]2(O)C(=O)CO [prednisone]
- Swelling degree, left anklejoint and foot (rat AA model; 1 d): 0.64 ± 0.14 Δcm
- Swelling degree, left anklejoint and foot (rat AA model; 2 d): 0.64 ± 0.16 Δcm
- Swelling degree, left anklejoint and foot (Table 1.2) (rat AA model; 2 d): 0.20 ± 0.06 Δcm
- Swelling degree, left anklejoint and foot (rat AA model; 3 d): 0.50 ± 0.26 Δcm
- Swelling degree, left anklejoint and foot (rat AA model; 9 d): 0.46 ± 0.25 Δcm
- Swelling degree, left anklejoint and foot (Table 1.2) (rat AA model; 9 d): 0.08 ± 0.08 Δcm
- Swelling degree, left anklejoint and foot (rat AA model; 12 d): 0.72 ± 0.46 Δcm
- Swelling degree, left anklejoint and foot (Table 1.2) (rat AA model; 12 d): 0.21 ± 0.16 Δcm
- Swelling degree, left anklejoint and foot (rat AA model; 14 d): 0.87 ± 0.46 Δcm
- Swelling degree, left anklejoint and foot (Table 1.2) (rat AA model; 14 d): 0.44 ± 0.43 Δcm
- Swelling degree, left anklejoint and foot (rat AA model; 16 d): 1.28 ± 0.69 Δcm
- Swelling degree, left anklejoint and foot (Table 1.2) (rat AA model; 16 d): 0.99 ± 0.63 Δcm
- Swelling degree, left anklejoint and foot (Table 1.2) (rat AA model; 18 d): 0.84 ± 0.74 Δcm
- Swelling degree, left anklejoint and foot (rat AA model; 20 d): 1.03 ± 0.67 Δcm
- Swelling degree, left anklejoint and foot (Table 1.2) (rat AA model; 20 d): 0.82 ± 0.72 Δcm
- Swelling degree, left anklejoint and foot (rat AA model; 22 d): 1.05 ± 0.69 Δcm
- Swelling degree, left anklejoint and foot (Table 1.2) (rat AA model; 22 d): 0.79 ± 0.74 Δcm
- Swelling degree, left anklejoint and foot (rat AA model; 24 d): 0.90 ± 0.64 Δcm
- Swelling degree, left anklejoint and foot (Table 1.2) (rat AA model; 24 d): 0.75 ± 0.67 Δcm
- Swelling degree, left anklejoint and foot (rat AA model; 26 d): 0.86 ± 0.65 Δcm
- Swelling degree, left anklejoint and foot (Table 1.2) (rat AA model; 26 d): 0.68 ± 0.64 Δcm
- Swelling degree, left anklejoint and foot (rat AA model; 28 d): 0.85 ± 0.59 Δcm
- Swelling degree, left anklejoint and foot (Table 1.2) (rat AA model; 28 d): 0.71 ± 0.67 Δcm
- BW at 1 month later [1]: 244 ± 31 g
- BW change [1]: -21 g
- Initiative BW [1]: 264 ± 55 g
- Organ index [(organ weight/body weight)/100] Liver ([2]; 0.01 g/kg): 3.04 ± 0.20
- Organ index [(organ weight/body weight)/100] Spleen ([2]; 0.01 g/kg): 0.32 ± 0.08
- Organ index [(organ weight/body weight)/100] Thymus ([2]; 0.01 g/kg): 0.050 ± 0.060
- Organ index [(organ weight/body weight)/100] adrenal gland ([2]; 0.01 g/kg): 0.020 ± 0.004
- atrophy of the thymus and adrenal gland ([2]; AA rats, tables 1.4 and 1.7): atrophied
- Swelling degree, left anklejoint and foot (AA rats; 1 d): 1.78 ± 0.51 Δcm
- Swelling degree, left anklejoint and foot (AA rats; 2 d): 1.70 ± 0.51 Δcm
- Swelling degree, right anklejoint and foot (AA rats; 2 d): 0.10 ± 0.13 Δcm
- Swelling degree, left anklejoint and foot (AA rats; 4 d): 1.63 ± 0.50 Δcm
- Swelling degree, right anklejoint and foot (AA rats; 4 d): 0.15 ± 0.28 Δcm
- Swelling degree, left anklejoint and foot (AA rats; 6 d): 1.58 ± 0.50 Δcm
- Swelling degree, right anklejoint and foot (AA rats; 6 d): 0.11 ± 0.25 Δcm
- Swelling degree, left anklejoint and foot (AA rats; 8 d): 1.27 ± 0.46 Δcm
- Swelling degree, right anklejoint and foot (AA rats; 8 d): −0.08 ± 0.34 Δcm
- Swelling degree, left anklejoint and foot (AA rats; 10 d): 1.09 ± 0.54 Δcm
- Swelling degree, right anklejoint and foot (AA rats; 10 d): −0.13 ± 0.28 Δcm
- Swelling degree, left anklejoint and foot (AA rats; 12 d): 0.94 ± 0.50 Δcm
- Swelling degree, right anklejoint and foot (AA rats; 12 d): −0.26 ± 0.36 Δcm
- Swelling degree, left anklejoint and foot (AA rats; 14 d): 0.94 ± 0.42 Δcm
- Swelling degree, right anklejoint and foot (AA rats; 14 d): −0.33 ± 0.39 Δcm
- Organ index [(organ weight/body weight)/100] Liver [3]: 3.52 ± 0.35
- Organ index [(organ weight/body weight)/100] Spleen [3]: 0.28 ± 0.047
- Organ index [(organ weight/body weight)/100] Thymus [3]: 0.05 ± 0.011
- Organ index [(organ weight/body weight)/100] adrenal gland [3]: 0.02 ± 0.0043

SMILES: CN1CCC(=C2c3ccccc3CC(=O)c3sccc32)CC1 [Ketotifen]
- PCA absorbancy (PCA in rat; serum d1 (1:5)): 0.033 ± 0.024
- PCA value (PCA in rat; serum d1 (1:5)): 2.78 ± 1.64
- PCA absorbancy (PCA in rat; serum d2 (1:10)): 0.027 ± 0.019
- PCA value (PCA in rat; serum d2 (1:10)): 0.67 ± 1.41

SMILES: C[C@@H]1C[C@H]2[C@@H]3CCC4=CC(=O)C=C[C@]4(C)[C@@]3(F)[C@@H](O)C[C@]2(C)[C@@]1(O)C(=O)CO [dexamethasone]
- Percent of phagocytosis (macrophage): 8.33 ± 10.13 %
- phagocytosis index (macrophage): 1.10 ± 0.18
- Leakage of the tincture (capillary permeability): 0.11 ± 0.07 OD
- Tincture exudation ([4]; 4 h): 0.085 ± 0.045 OD
- Tincture exudation ([4]; 32 h): 0.063 ± 0.017 OD
- Degree of ears' swelling [5]: 14.13 ± 5.75 mg
- inhibition at 3 mg/kg ([5]; Mus musculus, 72 h, read-out: inhibition rate): 68.2%
